The assay has as its system Plasmodium falciparum. The assay is described as follows: GSK_TCMDC: Inhibition of Plasmodium falciparum 3D7 in whole erythrocytes, using parasite LDH activity as an index of growth. It is filed as functional, organism-based. The settings on record: Plasmodium falciparum, 3D7.

SMILES strings stand for the structures.

For `O=c1ccc2ccc(F)c3c2n1CC3CN1CCC(NCc2cccc(-c3ccccc3F)c2)CC1` (stereo unspecified), the XC50 turned out to be 1100 nM.

`CO/C(=C\C=C\c1cc2cc(Cl)c(Cl)cc2[nH]1)C(=O)NCCCN1CCN(c2cccc(CCO)c2)CC1`: the XC50 was 716 nM.

Regarding `COc1ccc(CN2CCC(N3CCc4cc(NC(=O)c5cc(C)on5)ccc43)C2)cc1Cl` (stereo unspecified), the XC50 is 939 nM.

In turn, `Cc1ccnc2nc(C(=O)Nc3cc(Cl)ccc3N3CCOCC3)nn12` came in with an XC50 of 1240 nM.

Take `Cc1cccc2nc(-c3ccc(-c4ccc(NC(=O)CN5CCN(C)CC5)cc4)cc3)[nH]c12`: the XC50 was 785 nM.

With `N#Cc1ccc2[nH]cc(C(=O)CCCCCN(Cc3ccccc3)Cc3ccccc3)c2c1`, the XC50 amounted to 785 nM.

Regarding `CCC(=O)N(c1ccccc1)C1CCN(CCCC(NC(=O)c2cc(C(F)(F)F)cc(C(F)(F)F)c2)c2ccc(Cl)c(Cl)c2)CC1` (stereo unspecified), the XC50 was determined as 803 nM.

Compound `CCn1c(CN2CCC(C)CC2)nc2cc(NC(=O)c3cccs3)ccc21` came in with an XC50 of 565 nM.

In the case of `Cc1c(Cl)cccc1S(=O)(=O)Nc1ccc(CCN2CCC(N)CC2)cc1`, the XC50 is 1460 nM.

`CC(C)Oc1ccccc1-c1csc(C(=O)NCC2CCN(Cc3ccc(C(C)(C)C)cc3)C2)c1` (stereo unspecified): the XC50 amounted to 1070 nM.

The compound `COc1ccc2cc(C(=O)Nc3ccc4c(c3)CCN(C3CCC3)CC4)ccc2c1` yielded an XC50 of 838 nM.

As for `Cc1cc(N/N=C/c2ccccc2[N+](=O)[O-])c2cc(C(F)(F)F)ccc2n1`, the XC50 was 750 nM.

For the compound `COc1ccc2c(c1CNCCCCCCNCc1c(OC)ccc3c1CCCC3)CCCC2`, the XC50 stood at 907 nM.

`COC(=O)Cn1c(C2CCN(CC3CCN(C(=O)/C=C/c4ccc(Cl)c(Cl)c4)CC3)CC2)nc2ccccc21` had an XC50 of 1200 nM.

Turning to `Cc1cc2nc(N/C(N)=N/C(=O)NC3CCCCC3)nc(C)c2cc1C`, the XC50 was determined as 754 nM.

In the case of `C[C@@H](CC1CCCCC1)OC(=O)N(C)[C@@H]1CCN(C#N)C1`, the XC50 was 621 nM.

Take `CC1(C)NC(N)=NC(=N)N1OCCCc1ccc(Cl)cc1Cl`: the XC50 amounted to 3.2 nM.

Compound `CS(=O)(=O)c1ccc(CCNCc2ccc(-c3ccc(CN(C(=O)c4ccc(Cl)nc4)C4CCN(Cc5ccccc5)CC4)cc3)nc2)cc1` displayed an XC50 of 801 nM.

For the compound `CC(C)c1ccc2[nH]c(C(=O)NC3CCC(N4CCCc5ccc(C#N)cc5C4)CC3)cc2c1` (stereo unspecified), the XC50 is 1090 nM.

Take `N#Cc1ccc(/C=C/C(=O)NCCCCCN2CCN(C(=O)Nc3ccc(Cl)c(C(F)(F)F)c3)CC2)cc1`: the XC50 turned out to be 780 nM.

The compound `OCCN1CCN(c2ccc(Nc3ccnc4cc5ccccc5cc34)cc2)CC1` yielded an XC50 of 41 nM.

On to `CS(=O)(=O)Nc1ccc2[nH]cc(C3CCN(CC4CCC(NC(=O)/C=C/c5ccc(Cl)c(Cl)c5)CC4)CC3)c2c1` (stereo unspecified), for which the XC50 worked out at 847 nM.

Compound `O=C(N[C@H]1CCN(Cc2ccc(OC3CCN(Cc4ccccc4)CC3)c(Br)c2)C1)c1ccc(Cl)c(Cl)c1` gave an XC50 of 783 nM.

In turn, `CC(C)(C)c1ccc(NC(=O)Nc2ccc(Cn3ncc(N4CCCNCC4)c(Cl)c3=O)cc2)cc1` gave an XC50 of 752 nM.

On to `Nc1c2ccccc2nc2ccc(-c3ccccc3)cc12`, for which the XC50 is 140 nM.

As to `Cc1cccc2nc(-c3ccc(-c4ccc(CN5CCN(CCN6CCOCC6)CC5)cc4)cc3)[nH]c12`, the XC50 was determined as 231 nM.

Consider `CC(CN(C)C)C(=O)Nc1ccc(-c2ccc(-c3nc4cc(F)ccc4[nH]3)cc2)cc1` (stereo unspecified), for which the XC50 is 773 nM.

Regarding `O=C(Nc1ccccc1)N1CCC(CN2CCOC(c3ccccc3)(c3ccccc3)C2)CC1`, the XC50 was 206 nM.

In turn, `O=C(Nc1ccc2c(c1)CCC2)c1cccc(CN2CCCN(Cc3cccc(O)c3)CC2)c1` displayed an XC50 of 1080 nM.

On to `COc1ccc2nc(-c3ccccc3)cc(N/N=C/c3ccc([N+](=O)[O-])o3)c2c1`, for which the XC50 is 202 nM.

For `COc1ccc2c(NN=Cc3cccc(Cl)c3)ccnc2c1`, the XC50 stood at 716 nM.

Turning to `COc1ccc(Nc2nccc(N3CCC(NC(=O)Nc4cc(C)ccc4C)C3)n2)cc1` (stereo unspecified), the XC50 was determined as 901 nM.

`COc1cc2nc(C)nc(Nc3cccc(Br)c3)c2cc1OC` returned an XC50 of 356 nM.

In turn, `CCN1CCN(CCCCNc2c3ccccc3nc3ccccc23)CC1` gave an XC50 of 860 nM.

Take `Cc1ccccc1Nc1nc(NCCCO)c2ccccc2n1`: the XC50 was determined as 407 nM.

`Cn1c(=O)c2cc(C(=O)NCCCN3CCCCCC3)sc2c2ccccc21`: the XC50 worked out at 689 nM.

Compound `CC(=O)Nc1ccc(C#Cc2ccc(-c3c(C)[nH]c(C)c(Cl)c3=O)cc2)cc1` came in with an XC50 of 462 nM.

The compound `O=C(Nc1ccc(-c2cccc(-c3nc4cc(F)ccc4[nH]3)c2)cc1)c1ccncc1` had an XC50 of 719 nM.

In the case of `CCOC(=O)C(=CNc1ccc(Cc2cnc(N)nc2N)cc1CC)C(=O)OCC`, the XC50 was 1140 nM.

`O=C(NC1CCCCC1)c1csc(C2CCCN(C(=O)c3ccc(O)c(-c4cccc(C(F)(F)F)c4)c3)C2)n1` (stereo unspecified) displayed an XC50 of 1670 nM.

For the compound `CCCN(CCC)C(=O)c1cc(-c2cccc(C)c2)nc2ccccc12`, the XC50 was 1060 nM.

As for `COc1ccc(NC2=C(c3ccccc3)C(=O)c3ccccc32)cn1`, the XC50 was determined as 705 nM.

In turn, `Cc1cccc2nc(-c3cccc(-c4ccc(NC(=O)Nc5ccc(F)c(F)c5F)cc4)c3)[nH]c12` yielded an XC50 of 168 nM.

In turn, `Cc1cccc(Cn2c(C(N)=O)nn(-c3ccc([N+](=O)[O-])cc3C#N)c2=S)c1` gave an XC50 of 731 nM.

`O=C(/C=C/c1ccc(Cl)c(Cl)c1)NCCCCCN1CCC(NC(=S)Nc2cccc(Cl)c2)CC1` came in with an XC50 of 873 nM.

For `CC(C)Sc1nc(-c2ccccc2)nc2c1COC(C)(C)C2`, the XC50 is 857 nM.

Turning to `CCOc1ccccc1CON1C(N)=NC(N)=NC1(C)C`, the XC50 stood at 3.71 nM.

As for `Cc1cc(N(C)C)nc(Nc2ccc(NC(=O)COc3ccccc3)cc2)n1`, the XC50 is 1760 nM.

Consider `Cc1cc(N2CCC(N(C)C)C2)nc(Nc2ccc(Cl)cc2)n1` (stereo unspecified), for which the XC50 was found to be 517 nM.

With `COc1ccc(C=C2SC(=N)N(c3ccccc3OC)C2=O)cc1`, the XC50 was found to be 300 nM.

For `COC(=O)c1ccc(CC(C)NCC(O)c2cccc(C(F)(F)F)c2)cc1C` (stereo unspecified), the XC50 amounted to 974 nM.

In the case of `O=C(Nc1cccc2ccccc12)N1CCc2cc3nccc(N4CCN5CCC[C@H]5C4)c3cc21`, the XC50 stood at 889 nM.

`CC(C)Oc1cc2c(cc1NS(=O)(=O)c1ccc(-c3ccc(Cl)s3)cc1F)CCN(C)CC2` gave an XC50 of 712 nM.

On to `Cc1c(F)cc(C(=O)NC2CC2)cc1-c1ccc2c(cnn2S(=O)(=O)c2ccc(F)c(F)c2)c1`, for which the XC50 was 265 nM.

The compound `CC(=O)c1ccc2nc[nH]c(=O)c2c1` had an XC50 of 722 nM.

`CCCCCCCC1CCN(C[C@H](O)c2ccnc3ccc(OC)cc23)CC1`: the XC50 amounted to 956 nM.

As to `Oc1ccc(CCNc2nc(NCc3ccccc3-c3ccc(C(F)(F)F)cc3)nc(NC3CCNCC3)n2)cc1`, the XC50 is 924 nM.

`CC(CCc1ccccc1)NCC(O)c1ccc2c3c(cccc13)C(=O)N2C` (stereo unspecified) had an XC50 of 812 nM.

The compound `CCOc1c(CNCCCNc2nc3ccccc3[nH]2)cc(I)cc1OC` had an XC50 of 663 nM.

As to `O=S(=O)(NCCN1CCCC1)c1ccc(-c2ccc(CNCc3ccccc3)cc2)cc1`, the XC50 came out at 775 nM.

Compound `CCNc1cc(C(=O)N[C@@H](Cc2ccccc2)[C@H](O)CNC2(CC)CCCCC2)cc(N2CCCCS2(=O)=O)c1` registered an XC50 of 265 nM.

As for `CC(=O)Nc1ccc(CN2CCC(CNC(=O)c3cc(-c4cccc(Cl)c4)cs3)C2)cc1` (stereo unspecified), the XC50 worked out at 1120 nM.

In the case of `COc1cc(C2CCN(CCCCNC(=O)c3ccc(NC(=O)c4ccc(Cl)c(Cl)c4)cc3)CC2)ccc1OC(C)C`, the XC50 came to 316 nM.

Compound `O=C(C=Cc1cn(-c2ccccc2)nc1-c1ccccc1)N1CCN(c2ccncc2)CC1` returned an XC50 of 965 nM.

Turning to `O=C(Nc1ccc(-c2cccc(-c3nc4ccccc4[nH]3)c2)cc1)Nc1ccc2c(c1)OCO2`, the XC50 worked out at 254 nM.

As for `Cc1ccc(CC(C)NC[C@H](O)c2cccc(Cl)c2)cc1` (stereo partly specified), the XC50 turned out to be 860 nM.

`O=C(/C=C/c1ccc(Cl)c(Cl)c1)N1CCN(C(=O)Nc2cccc(C(F)(F)F)c2)CC1` had an XC50 of 704 nM.

As to `CNC(=O)NC1=NC(C)(C)N(OCc2ccc(Cl)c(Cl)c2)C(NC(=O)NC)=N1`, the XC50 was 601 nM.

As to `Cn1c(=O)c2nc(-c3ccc(Cl)cc3)nnc2n(CCCC#N)c1=O`, the XC50 turned out to be 153 nM.

Compound `COc1cc(-c2nnc(SCC(=O)Nc3cc(C)on3)n2C)cc(OC)c1O` registered an XC50 of 177 nM.

The compound `Cc1cccc2nc(-c3cccc(-c4ccc(NC(=O)c5c[nH]cn5)cc4)c3)[nH]c12` gave an XC50 of 722 nM.

`CCN(CC)CCN(CCCc1ccc(-c2ccc(C(F)(F)F)cc2)cc1)C(=O)Cn1c(CCc2cccc(F)c2F)nc(=O)c2c1CCC2` yielded an XC50 of 828 nM.

As for `CC(C)[C@H](NC(=O)c1ccc(O)c(-c2cccc(C(F)(F)F)c2)c1)C(=O)NC1CCCc2ccccc21` (stereo partly specified), the XC50 amounted to 930 nM.

On to `COc1ccc(-c2cnc3ccc(NCc4ccc(S(N)(=O)=O)cc4)nn23)cc1`, for which the XC50 came to 796 nM.

Compound `CS(=O)(=O)NCCCNCc1cccc(-c2ccc(-c3nc4cc(C(F)(F)F)ccc4[nH]3)cc2)c1` returned an XC50 of 996 nM.

The compound `Nc1nc(Nc2ccc(Cl)cc2)nc2ccccc12` had an XC50 of 732 nM.

`O=C(Nc1ccc(F)cc1)c1ccc(C(=O)NC2CCN(CC3CCCCC3)CC2)cc1` gave an XC50 of 544 nM.

In turn, `N#Cc1nc2ccc(OCCN(Cc3ccccc3C(F)(F)F)c3ccc(C#N)c(C(F)(F)F)c3)cc2s1` registered an XC50 of 855 nM.

`Cc1ccc(O)c(C(=O)c2cnc3c(c2)c(-c2ccc(F)cc2)c(C#N)c(=O)n3C)c1` yielded an XC50 of 971 nM.

`CN1CCN(CCCN(Cc2cccc(-c3cccc(CNC4CCCC4)c3)c2)C(=O)CCC2CCCC2)CC1` came in with an XC50 of 675 nM.

`CCN(CC)CCN(Cc1ccc(-c2ccc(C(F)(F)F)cc2)cc1)C(=O)Cn1c(CCc2cc(F)cc(F)c2F)nc(=O)c2ccccc21` returned an XC50 of 756 nM.

The compound `COc1ccc2ncc(C#N)c(CCN3C4CCC3CC(NCc3ccc5c(n3)NC(=O)CS5)C4)c2c1` (stereo unspecified) displayed an XC50 of 810 nM.

On to `CCOC(=O)c1cnc2c(OC)cc(OC)c(Cl)c2c1Nc1ccccc1`, for which the XC50 was 871 nM.

In turn, `CC(C)(C)c1ccc2[nH]c(-c3ccc(C(=O)NC4CCN(Cc5ccccc5)CC4)s3)nc2c1` returned an XC50 of 359 nM.

Turning to `COc1cc2nc(N(C)C)nc(Nc3ccc(OCc4ccccc4)cc3)c2cc1OC`, the XC50 amounted to 71.8 nM.

In turn, `Cc1cccc2nc(-c3cccc(-c4cccc(NC(=O)COc5ccccc5C(N)=O)c4)c3)[nH]c12` displayed an XC50 of 161 nM.
